The values below are quoted from earlier work in paper PMC3983394 (Journal of Medicinal Chemistry, 2014).

For series [1], the system named is mice.
The test system of series [2] is mice. The source holds these as a separate data set.
For series [3], the system named is mice. The source holds these as a separate data set.
Series [4] relates to mice. The source holds these as a separate data set.

Take `CN1CCC[C@H]1c1cccnc1` [nicotine]: in the series with mice [1], the ED50 hot-plate was 0.65 (0.25–0.85) mg/kg. Also, the ED50 tail-flick in the series with mice [2] was 1.3 (0.5–1.8) mg/kg. In the series on mice [3], the ED50 spontaneous activity is listed as 0.5 (0.15–0.78) mg/kg. In the series on mice [4], the ED50 hypothermia is given as 1.0 (0.6–2.1) mg/kg.
